Results taken from paper PMC4569406, “Identification of Tetraazacyclic Compounds as Novel Potent Inhibitors Antagonizing RORγt Activity and Suppressing Th17 Cell Differentiation” (PLoS ONE, 2015).
“Also recorded” adds a separate entry of the source.

Legend:
[1] = test system: Th17 cell differentiation; experiment: Th17 differentiation of mouse CD4+CD25- T cells, qPCR of Rorγt, Il17a, Il17f; format: cell-based; settings: 5 μM, normalized to Gapdh; for attenuation of Il17a mRNA expression vs vehicle-treated control: Th17 polarizing conditions (TGF-β, IL-6); for suppression of Il17f mRNA expression: Th17 polarizing conditions
Description: (§1) CD4^+CD25^- T cells were isolated from spleens of 12-week-old C57BL/6 as follows: single-cell suspensions were made by crushing the spleen through a cell strainer, and red blood cells (RBCs) were lysed with an RBC lysis buffer. CD4^+ T cells were then purified using MACS magnetic cell column with a CD4^+ T cell isolation kit (Miltenyi, Biotec) according to the manufacturer’s protocol. Isolated cells were fluorescently stained with PE-conjugated anti-mouse TCR-βAb, PE-Cy7-conjugated anti-mouse CD4 Ab and APC-conjugated anti-mouse CD25 Ab (BD Bioscience, USA) and analyzed by flow cytometry.
(§2) The isolated CD4^+CD25^- T cells (3x10^6) were cultured under Th17 conditions. […] Specifically, the isolated CD4^+CD25^- T cells (3x10^6) were stimulated (in 6-well plates) with 5 μg/ml plate-bound anti-CD3e antibody (eBioscience, USA) and 2 μg/ml soluble anti-CD28 Ab (eBioscience, USA) for 24 hours. Then the activated cells were collected, resuspended and seeded into 96-well round-bottom plates (2x10^4) for Th17 differentiation in the presence of 5 ng/ml recombinant human TGF-β, 30 ng/ml recombinant mouse IL-6 (R&D systems) and DMSO as control or hit compounds with a final concentration of 5 μM. The cells were cultured for 2 days. Later, fresh medium was added (100ul/well) containing recombinant human TGF-β, recombinant mouse IL-6 (R&D systems) and the hit compounds as previously introduced for culturing another 2 days.
After 5 days of culture, splenocyte total RNA was extracted with TRIzol (Invitrogen, USA). Then about 1000ng total RNA was added to a 20 μL reaction volume for reverse transcriptions by the GoScript Reverse Transcription System (Promega, USA) according to the manufacturer’s instructions, followed by real-time quantification using GoTaq qPCR Master Mix (Promega, USA). Gene expression of mouse Rorγt, Il17a and Il17f was normalized to the expression of Gapdh. The following primer sequences were used: Rorc forward 5’-TGTAATGTGG CCTACTCCTGCA-3’, reverse 5’-[…]-3’; Il17a forward 5’-[…]-3’, reverse 5’-[…]-3’; Il17f forward 5’-[…]-3’, reverse 5’- […]-3’; Gapdh forward 5’-[…]-3’, reverse 5’-[…]-3’.

IL-17A secretion = IL-17A secretion by ELISA under Th17 polarizing conditions; format: cell-based, mouse; settings: 5 μM; for IL-17A concentration in supernatant / reduction of IL-17A secretion vs vehicle-treated control cells: Th17 polarizing conditions, ELISA
Description: as §1, §2
After 5 days of culture, the concentration of IL-17A in the supernatant was determined by an ELISA kit according to the manufacturer’s protocol (CUSABIO Systems, China).

RORγt-LBD [2] = molecular target: T1, RORγt-LBD (Homo sapiens, UniProt P51449); experiment: Inhibition of RORγt activity in RORγt+-293T stable reporter cells (luciferase); format: cell-based
T1 sequence (P51449 269-508 limits assumed): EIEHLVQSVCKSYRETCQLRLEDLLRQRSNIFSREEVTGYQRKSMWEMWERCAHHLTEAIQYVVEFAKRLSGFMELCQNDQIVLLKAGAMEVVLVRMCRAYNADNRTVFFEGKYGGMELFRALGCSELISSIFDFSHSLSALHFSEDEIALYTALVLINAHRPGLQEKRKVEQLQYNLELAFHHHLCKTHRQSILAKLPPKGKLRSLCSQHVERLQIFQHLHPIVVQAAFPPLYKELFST
Description: (§3) The pGL4.31[luc2P/GAL4UAS/Hygro] reporter plasmid and the pBIND vector were purchased from Promega (USA). The fragment of IRES-GFP was first inserted into NotI sites of pBIND. Human RORγtLBD was amplified from cDNA of human PBMC (cDNA is provided by Dr. Hui Zhang) and then cloned into the pBIND-IRES-GFP to generate the fusion sequence Gal4DBD-RORγtLBD-IRES-GFP. The primers that were used to construct the pBIND-Gal4DBD-RORγtLBD-IRES-GFP plasmid are shown as follows: RORγtLBD forward 5’- […]-3’, reverse 5’- […] -3’.
The 4 μg pGL4.31 reporter plasmids (promega, USA) were transfected into 293T cells (1 x 10^6) with Lipofectamin^TM 2000 (Invitrogen, USA) according to the manufacturer’s instructions. The transfected cells were then selected in medium containing 100 μg/mL hygromycin B (Roche, USA) for 3 weeks to obtain a stable clone which express pGL4.31 reporter gene. Then 4 μg pBIND-RORγtLBD-IRES-GFP plasmids were also transfected into the stable clone. The second transfected cells were sorted by Green Fluorescent Protein (GFP). Through this process, we obtained the 293T-RORγt stable reporter cell line. GFP^+-293T stable cell purity was determined >96% by flow cytometry analysis, which yielded a RORγt^+-293T (RORγt-LBD positive 293T cells) stable reporter cell line, and GFP^--293T stable cells were also sorted and used as a RORγt negative control cell line (Fig 1).
RORγt^+-293T stable cells (1x10^4) were seeded into 96-well plates (Corning, Costar)and incubated in DMEM complete medium overnight. Then the candidates were added with a final concentration of 5 μM. Negative control (DMSO) and positive control were carried on as HTS. 6 hours later, the cells were then lysed and assayed for luciferase activity (Promega, USA) following the manufacturer’s instructions.

RORγt-LBD [3] = molecular target: T1, RORγt-LBD; experiment: Gal4-RORγtLBD luciferase reporter assay in RORγt+-Jurkat stable cells (HTS / EC50 assay); format: cell-based; set-up: Human RORγtLBD was amplified from cDNA of human PBMC; expressed in transfected cells; host or cells: Jurkat cells stably carrying pGL4.31[luc2P/GAL4UAS/Hygro], GFP-sorted; settings: for EC50: 5 μM to 8 nM 5-fold gradient, read-out: EC50 (anti-RORγt activity, relative luciferase activity)
Description: as §3
(§4) Similar to the above procedure, to obtain the needed Jurkat-RORγt reporter cell lines, a total of 1x10^7 Jurkat cells were transfected with 20 μg pGL4.31 reporter plasmids by electroporation (Lonza, Swiss) according to the manufacturer’s instructions. The transfected Jurkat cells were also selected in RPMI 1640 medium containing 200 μg/mL hygromycin B. And then the 20 μg PBIND-RORγtLBD-IRES-GFP plasmids were also transfected into the stable Jurkat clone and were sorted by GFP. GFP^+-Jurkat stable cell purity was determined >96% by flow cytometry analysis and GFP^--Jurkat stable cells were also sorted (Fig 1).
RORγt^+-Jurkat stable cells (2x10^4) were seeded into 96-well round-bottom plates (Corning, Costar)and incubated in RPMI1640 complete medium overnight. At initial round screening, drug-like set compounds (Enamine, Monmouth Jct, NJ) were added using a Tecan Freedom EVO150 (Tecan, Männedorf, Schweiz) with a final concentration of 50 μM, which used by other research. 50 μM concentration is pretty high in drug screening and always raises many false positive. To reduce these false positive, we reduced the compounds concentration to 5 μM in the second round validation screening. Column 12 of each plate received only DMSO instead of any compounds as a negative control. In addition, column 1 of each plate was treated with 100 nM PMA (Sigma-Aldrich, USA) as a positive control. 6 hours later, the cells were then lysed and assayed for luciferase activity (Promega, USA) following the manufacturer’s instructions.
Jurkat-RORγt^+ stable cells were seeded into 96-well round-bottom plates (2x10^4) overnight and incubated with the compounds by 5-fold gradient, with final concentrations from 5μM to 8nM. 6h later, the cells were then lysed and assayed for luciferase activity (Promega, USA) following the manufacturer’s instructions. The values of half-maximal effective concentration (EC50) were determined by plotting the logarithm of compound concentration versus relative luciferase activity.
The EC50 and CC50 of all three compounds were determined to further identify the effects of these three tetraazacyclic compounds. […] The CC50 values of each compound in Jurkat cells were also determined as previously described in the methods section.

[4] = Cell viability (MTT) assay; format: cell-based; settings: human, wild type Jurkat cells, highest concentration 5 μM
Description: The cell viabilities of Jurkat cells (wild type) after treatment with chemicals were assessed by MTT technique. In brief, wild type Jurkat cells were seeded (2x10^4) and incubated with the compounds by 5-fold gradient concentrations, as described above. 48h treatment later, MTT (Dimethylthiazolyl-2-5-diphenyltetrazolium bromide) dye solution (Sigma, USA) was added into the 96-well plate and incubated at 37°C for 4 h, MTT is cleaved by live cells to a colored formazan product. After centrifugation (1500rpm, 5min) the supernatant was discarded. 100μl DMSO was added to dissolve the formazan product and gently shaken for 10min. Absorbance at 570 nm wavelength was recorded using a Thermo Scientific Multiskan FC (Thermo Scientific, USA). Each treatment was repeated in quadruplicate. Cell viabilities were defined relative to control cells (DMSO treated). The half-maximal cytotoxic concentration (CC50) for each compound was calculated from these dose-response curves with the aid of Graphpad Prism software (GraphPad Software, CA).

[5] = test system: Th17 cell differentiation; set-up: method as in PMID 21499262, PMID 22769242; settings: cited from earlier work
RORγt--Jurkat cells = experiment: Luciferase reporter activity in RORγt--Jurkat (RORγt-LBD negative) control cells; format: cell-based; settings: different concentrations of PMA (100 nM, 10 nM, 1 nM), 4 and 6 hr
Description: as §4
RORγt^+-Jurkat (RORγt-LBD positive Jurkat cells) and RORγt^--Jurkat (RORγt-LBD negative Jurkat cells) stable cells (1x10^5) were seeded onto separate 12-well plates and cultured overnight. Cells were then stimulated with different concentrations of PMA (100 nM, 10 nM, 1 nM) or DMSO (negative control) for 4, 6, and 8 hr. […] Luciferase activity was highest in cells cultured with 100nM PMA, it was at approximately 40-fold over the DMSO control (Fig 2A and 2B). When RORγt^+-Jurkat cells were cultured for 6 hr, the luciferase activity was nearly identical across the concentrations and increased from control by about 40-fold at various concentrations (Fig 2D and 2E). […]

Row | inhibition at 5 µM (RORγt-LBD [2]; 5 μM, 6 h, vs vehicle control) [%] | inhibition at 5 µM (RORγt-LBD [3]; 5 μM, 6 hr, vs vehicle control) [%] | EC50 (RORγt-LBD [3]; RORγt+-Jurkat cells, 6 hr) [nM] | inhibition of reporter activity in RORγt+-293T cells (RORγt-LBD [2]; 5 μM, 6 h, vs vehicle control) | Structure (SMILES) | attenuation of Il17a mRNA expression vs vehicle-treated control [1] | suppression of Il17f mRNA expression [1] | IL-17A concentration in supernatant (IL-17A secretion) [pg/mL] | reduction of IL-17A secretion vs vehicle-treated control cells (IL-17A secretion) [%] | suppression / reduction in IL-17A production (Discussion summary) (IL-17A secretion; mouse Th17 differentiation, for 11 and 14 both mRNA expression and protein secretion) | CC50 at 48 h [4] [nM] | activity in Th17 cell differentiation study [5] | luciferase activity in RORγt--Jurkat cells (RORγt--Jurkat cells) | greatest increase in luciferase activity vs DMSO (RORγt-LBD [2]; RORγt+-293T cells, 100 nM PMA, 4 hr and 6 hr) | luciferase activity, fold over DMSO control (RORγt-LBD [3]; RORγt+-Jurkat cells, 100 nM PMA, 4 hr) | luciferase activity, fold increase from control (RORγt-LBD [3]; RORγt+-Jurkat cells, 100 nM, 10 nM, 1 nM PMA, 6 hr)
1 | 95 | 75 | 2600 | – | CCN(CC)Cc1nc(Sc2nnnn2-c2ccccc2)c2c(C)c(C)sc2n1 [compound 7, N-[[5,6-dimethyl-4-(1-phenyltetrazol-5-yl)sulfanylthieno[3,2-e]pyrimidin-2-yl]methyl]-N-ethylethanamine] | 65%-80% | 87% | 196 | 47 | ~ 50% | 1500 | – | – | – | – | –
2 | – | – | 250 | significantly less inhibition | Cc1ccccc1-n1nnnc1Sc1ccnc2cc(Cl)ccc12 [compound 11, 7-chloro-4-[1-(2-methylphenyl)tetrazol-5-yl]sulfanylquinoline] | 65%-80% | 90% | 136 | 63 | – | > 5000 | – | – | – | – | –
3 | – | – | 670 | significantly less inhibition | Cc1cccc(C)c1-n1nnnc1Sc1ncnc2ccsc12 [compound 14, 4-[1-(2,6-dimethylphenyl)tetrazol-5-yl]sulfanylthieno[3,2-d]pyrimidine] | 65%-80% | did not significantly inhibited; also recorded: no significant inhibition | 88 | 74 | – | > 5000 | – | – | – | – | –

Further lines, the compound ahead of its results:

Row | Structure (SMILES) | inhibition at 5 µM (RORγt-LBD [2]; 5 μM, 6 h, vs vehicle control) [%] | inhibition at 5 µM (RORγt-LBD [3]; 5 μM, 6 hr, vs vehicle control) [%] | EC50 (RORγt-LBD [3]; RORγt+-Jurkat cells, 6 hr) [nM] | inhibition of reporter activity in RORγt+-293T cells (RORγt-LBD [2]; 5 μM, 6 h, vs vehicle control) | attenuation of Il17a mRNA expression vs vehicle-treated control [1] | suppression of Il17f mRNA expression [1] | IL-17A concentration in supernatant (IL-17A secretion) [pg/mL] | reduction of IL-17A secretion vs vehicle-treated control cells (IL-17A secretion) [%] | suppression / reduction in IL-17A production (Discussion summary) (IL-17A secretion; mouse Th17 differentiation, for 11 and 14 both mRNA expression and protein secretion) | CC50 at 48 h [4] [nM] | activity in Th17 cell differentiation study [5] | luciferase activity in RORγt--Jurkat cells (RORγt--Jurkat cells) | greatest increase in luciferase activity vs DMSO (RORγt-LBD [2]; RORγt+-293T cells, 100 nM PMA, 4 hr and 6 hr) | luciferase activity, fold over DMSO control (RORγt-LBD [3]; RORγt+-Jurkat cells, 100 nM PMA, 4 hr) | luciferase activity, fold increase from control (RORγt-LBD [3]; RORγt+-Jurkat cells, 100 nM, 10 nM, 1 nM PMA, 6 hr)
4 | CC(=O)Nc1nc(C)c(S(=O)(=O)Nc2ccc(C(O)(C(F)(F)F)C(F)(F)F)cc2)s1 [SR1001] | – | – | – | – | – | – | – | – | – | – | relatively weak activity | – | – | – | –
5 | CCCCCCCCCCCCCC(=O)O[C@@H]1[C@@H](C)[C@@]2(O)[C@@H](C=C(CO)C[C@]3(O)C(=O)C(C)=C[C@@H]23)[C@@H]2C(C)(C)[C@]12OC(C)=O [PMA, phorbol-12-myristate-13-acetate, reference compound] | – | – | – | – | – | – | – | – | – | – | – | no significant increase | 4–6 folds | approximately 40 fold | approximately 40 fold
